Where a name gives a salt, the structure may show the parent alone.

Usually melting point stands for the temperature of the solid-liquid transition. For `O=C(NCC12CC3CC(CC(C3)C1)C2)c1cccnc1Sc1cc(O)ccc1O` [Example 44, 2-(2,5-Dihydroxyphenylthio)-N-(tricyclo[3.3.1.1^3,7]dec-1-ylmethyl)-3-pyridine carboxamide], the melting point lay in the range of 108 to 110 °C.
Take `O=C(NCC12CC3CC(CC(C3)C1)C2)c1ccc(Cl)cc1Cl`: the melting point lay in the range of 180 to 182 °C.
For the compound `CNc1ncccc1C(=O)NCC12CC3CC(CC(C3)C1)C2` (as salt: hydrochloride) [Example 34, 2-(Methylamino)-N-(tricyclo[3.3.1.1^3,7]dec-1-ylmethyl)-3-pyridine carboxamide, dihydrochloride], the melting point fell in the range of 160 to 162 °C.
In turn, `O=C(NCC12CC3CC(CC(C3)C1)C2)c1c(Cl)cccc1Cl` [Example 4, 2,6-Dichloro-N-(tricyclo[3.3.1.1^3,7]dec-1-methyl)-benzamide] displayed a melting point of 246 to 247 °C.
As for `Cc1ccc(C)c(C(=O)NCC23CC4CC(CC(C4)C2)C3)c1` [Example 22, 2,5-Dimethyl-N-(tricyclo[3.3.1.1^3,7]dec-1-methyl)-benzamide], the figure is 153 to 154 °C; as for `CN(C)CCCOc1ccc(Sc2ncccc2C(=O)NCC23CC4CC(CC(C4)C2)C3)cc1` (as salt: hydrochloride) [Example 48, 2-(4-(3-N,N-dimethylamino)propyloxyphenylthio)-N-(tricyclo[3.3.1.1^3,7]dec-1-ylmethyl)-3-pyridine carboxamide, dihydrochloride], 177 to 178 °C; as for `CN(C)CCOc1ccc(Cl)c(C(=O)NCC23CC4CC(CC(C4)C2)C3)c1` [Example 60, 2-Chloro-5-(N,N-dimethylamino)ethyloxy-N-(tricyclo[3.3.1.1^3,7]dec-1-ylmethyl)-benzamide], 144 to 147 °C.
To `O=C(NCC12CC3CC(CC(C3)C1)C2)c1cccnc1N1CCCC1` (as salt: hydrochloride) [Example 36, 2-(Pyrrolidin-1-yl) N-(tricyclo[3.3.1.1^3,7]dec-1-ylmethyl)-3-pyridine carboxamide, dihydrochloride] belongs 157 to 158 °C; to `CN(C)c1ncccc1C(=O)NCC12CC3CC(CC(C3)C1)C2` (as salt: hydrochloride) [Example 35, 2-(Dimethylamino)-N-(tricyclo[3.3.1.1^3,7]dec-1-ylmethyl)-3-pyridine carboxamide, hydrochloride], 204 to 205 °C; to `O=C(NCC12CC3CC(CC(C3)C1)C2)c1cc(NCCNCC(O)c2ccccc2)ccc1Cl` (stereo not drawn) [Example 69, 5-(N-(2-Hydroxy-2-phenylethyl)-2-aminoethyl)amino-2-chloro-N-(tricyclo[3.3.1.1^3,7]dec-1-ylmethyl)-benzamide], 63 to 64 °C.
As for `O=C(NCC12CC3CC(CC(C3)C1)C2)c1cc(Cl)ccc1Cl` [Example 61, 2,5-Dichloro-N-(tricyclo[3.3.1.1^3,7]dec-1-ylmethyl)-benzamide], the figure is 161 to 162 °C.
Consider `N#Cc1ccccc1Sc1ccccc1C(=O)NCC12CC3CC(CC(C3)C1)C2` [Example 16, 2-(2-Cyanophenylthio)-N-(tricyclo[3.3.1.1^3,7]dec-1-methyl)-benzamide], for which the melting point was in the range of 62 to 65 °C.
To `CSc1nc(C)ccc1C(=O)NCC12CC3CC(CC(C3)C1)C2` [Example 49, (2-Methylthio-6-methyl)-N-(tricyclo[3.3.1.1^3,7]dec-1-ylmethyl)-3-pyridine carboxamide] belongs 160 to 161 °C; to `O=C(NCC12CC3CC(CC(C3)C1)C2)c1cccnc1NCCN1CCCC1` (as salt: hydrochloride) [Example 33, 2-(2-(Pyrrolidin-1-yl)ethylamino)-N-(tricyclo[3.3.1.1^3,7]dec-1-ylmethyl)-3-pyridine carboxamide, dihydrochloride], 266 to 268 °C.
To `CNc1ccc(Cl)c(C(=O)NCC23CC4CC(CC(C4)C2)C3)c1` [Example 62, 2-Chloro-5-methylamino-N-(tricyclo[3.3.1.1^3,7]dec-1-ylmethyl)-benzamide] belongs 163 to 164 °C.
For `O=C(NCC12CC3CC(CC(C3)C1)C2)c1c(F)cccc1F` [Example 12, 2,6-Difluoro-N-(tricyclo[3.3.1.1^3,7]dec-1-methyl)-benzamide], the melting point was in the range of 162 to 163 °C.
With `CN(C)CCOc1ccccc1C(=O)NCC12CC3CC(CC(C3)C1)C2.Cl`, the melting point lay in the range of 181 to 183 °C.
As for `O=C(NCC12CC3CC(CC(C3)C1)C2)c1cccc(O)c1Cl` [Example 59], the figure is 234 to 235 °C.
As for `Nc1cccc(Cl)c1C(=O)NCC12CC3CC(CC(C3)C1)C2` [Example 14, 2-Amino-6-chloro-N-(tricyclo[3.3.1.1^3,7]dec-1-methyl)-benzamide], the figure is 182 to 183 °C.
To `O=C(NCCC12CC3CC(CC(C3)C1)C2)c1ccccc1Cl` [Example 72, 2-Chloro-N-(2-[tricyclo[3.3.1.1^3,7]dec-1-yl]ethyl)-benzamide] belongs 125 to 127 °C; to `COc1cc(OC)cc(C(=O)NCC23CC4CC(CC(C4)C2)C3)c1` [Example 68], 130 to 133 °C.
In turn, `COc1ccc(OC)c(Sc2ncccc2C(=O)NCC23CC4CC(CC(C4)C2)C3)c1` [Example 37, 2-(2,5-Dimethoxyphenylthio)-N-(tricyclo[3.3.1.1^3,7]dec-1-ylmethyl)-3-pyridine carboxamide] registered a melting point of 135 to 136 °C.
As for `O=C(O)CSc1ncccc1C(=O)NCC12CC3CC(CC(C3)C1)C2` [Example 45, 3-[[(Tricyclo[3.3.1.1^3,7]dec-1-ylmethyl)amino]carbonyl]pyridyl-2-thioacetic acid], the figure is 147 to 150 °C.
To `Cc1ccc(Sc2ncccc2C(=O)NCC23CC4CC(CC(C4)C2)C3)cc1` [Example 17, 2-(4-Methylphenylthio)-N-(tricyclo[3.3.1.1^3,7]dec-1-methyl)-3-pyridine carboxamide] belongs 166 to 169 °C; to `CSc1ccccc1C(=O)NCC12CC3CC(CC(C3)C1)C2` [Example 18, 2-(Methylthio)-N-(tricyclo[3.3.1.1^3,7]dec-1-methyl)-benzamide], 171 to 172 °C; to `Nc1ccc(Cl)c(C(=O)NCCC23CC4CC(CC(C4)C2)C3)c1` [Example 74, 5-Amino-2-chloro-N-(2-[tricyclo[3.3.1.1^3,7]dec-1-yl]ethyl)-benzamide], 147 to 149 °C.
To `O=C(NCC12CC3CC(CC(C3)C1)C2)c1cc(I)ccc1Cl` [Example 80, 2-Chloro-5-iodo-N-(tricyclo[3.3.1.1^3,7]dec-1-ylmethyl)-benzamide] belongs 161.4 to 161.5 °C; to `O=C(NCC12CC3CC(CC(C3)C1)C2)c1c(F)cccc1C(F)(F)F` [Example 13, 2-(Trifluoromethyl)-6-flouro-N-(tricyclo(3.3.1.1^3,7]dec-1-methyl)-benzamide], 151 to 153 °C.
Consider `O=C(NCC12CC3CC(CC(C3)C1)C2)c1cc(NCCN2CCCCC2)ccc1Cl` (as salt: hydrochloride) [Example 70, 2-Chloro-5-(2-(piperidin-1-yl)ethylamino)-N-(tricvclo(3.3.1.1^3,7]dec-1-ylmethyl)-benzamide, hydrochloride], for which the melting point is 142 to 143 °C (dec.).
As for `CSc1ccc(Cl)c(C(=O)NCC23CC4CC(CC(C4)C2)C3)c1` [Example 38, 2-Chloro-5-methylthio-N-(tricyclo[3.3.1.1^3,7]dec-1-ylmethyl)-benzamide], the figure is 126 to 127 °C; as for `CC(C)(C)OC(=O)COc1ccccc1C(=O)NCC12CC3CC(CC(C3)C1)C2` [Example 25, 2-[[(Tricyclo[3.3.1.1^3,7]dec-1-ylmethyl)amino]carbony]phenyl-1-oxyacetic acid, 1,1-dimethylethyl ester], 101 to 103 °C.
To `COc1cccc(OC)c1C(=O)NCC12CC3CC(CC(C3)C1)C2` belongs 185 to 186 °C.
To `O=C(NCCC12CC3CC(CC(C3)C1)C2)c1cccc(Cl)c1Cl` [Example 73, 2,3-Dichloro-N-(2-[tricyclo(3.3.1.1^3,7]dec-1-yl]ethyl)-benzamide] belongs 158 to 159 °C.
Compound `CN(C)CCSc1ccccc1C(=O)NCC12CC3CC(CC(C3)C1)C2` [Example 39, 2-(2-(N,N-Dimethylamino)ethylthio)-N-(tricyclo[3.3.1.1^3,7]dec-1-ylmethyl)-benzamide] returned a melting point of 193 to 195 °C.
To `Cc1ccc(C)c(C(=O)NCC23CC4CC(CC(Cl)(C4)C2)C3)c1` [Example 78, 2,5-Dimethyl-N-(3-chloro-tricyclo[3.3.1.1^3,7]dec-1ylmethyl)-benzamide] belongs 155 °C.
As for `O=C(NCC12CC3CC(CC(C3)C1)C2)c1ccccc1[N+](=O)[O-]` [Example 9, 2-Nitro-N-(tricyclo[3.3.1.1^3,7]dec-1-methyl)-benzamide], the figure is > 250 °C; as for `O=C(NCC12CC3CC(CC(C3)C1)C2)c1cc(NCCCl)ccc1Cl`, 144 to 145 °C; as for `Nc1cccc(Cl)c1C(=O)NCCC12CC3CC(CC(C3)C1)C2` [Example 29, 2-Amino-6-chloro-N-(2-[tricyclo[3.3.1.1^3,7]dec-1-yl]ethyl)-benzamide], 132 to 134 °C.
To `Cc1c(N)cc(N)cc1C(=O)NCC12CC3CC(CC(C3)C1)C2` [Example 66, 3,5-Diamino-2-methyl-N-(tricyclo[3.3.1.1^3,7]dec-1-ylmethyl)-benzamide] belongs 220 °C (dec.); to `O=C(NCC12CC3CC(CC(C3)C1)C2)c1cc(Cl)cc(Cl)c1` [Example 2, 3,5-Dichloro-N-(tricyclo[3.3.1.1^3,7]dec-1-methyl)-benzamide], 197 to 198 °C.
With `O=C(NCC12CC3CC(CC(C3)C1)C2)c1ccccc1Cc1ccccc1` [Example 23, 2-(Phenylmethyl) -N-(tricyclo[3.3.1.1^3,7]dec-1-methyl)-benzamide], the melting point is 156 to 157 °C.
As for `O=C(NCC12CC3CC(CC(C3)C1)C2)c1cccc(F)c1Cl` [Example 41, 2-Chloro-3-fluoro-N-(tricyclo[3.3.1.1^3,7]dec-1-ylmethyl)-benzamide], the figure is 149 to 151 °C.
